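A five-concentration, 48-hour dose response in 96-well plates underlies each endpoint, interpolated linearly between surrounding concentrations. TGI marks complete inhibition of growth.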
Legend:
Assay in all cases: NCI anticancer screen, dose series, 48 h
SNB-19 CNS = system: SNB-19 CNS
T-47D breast = system: T-47D breast
SW-620 colon = system: SW-620 colon
MDA-MB-435 = system: MDA-MB-435
UACC-62 melanoma = system: UACC-62 melanoma
EKVX NSCLC = system: EKVX NSCLC
COLO 205 colon = system: COLO 205 colon
K-562 leukemia = system: K-562 leukemia
HT29 colon = system: HT29 colon
HCC-2998 colon = system: HCC-2998 colon

SMILES | TGI (SNB-19 CNS) | TGI (T-47D breast) | TGI (SW-620 colon) | TGI (MDA-MB-435) | TGI (UACC-62 melanoma) | TGI (EKVX NSCLC) | TGI (COLO 205 colon) | TGI (K-562 leukemia) | TGI (HT29 colon) | TGI (HCC-2998 colon)
COc1ccc(Cn2c(=O)c(OS(=O)(=O)C(F)(F)F)c(C)c3cc4ccccc4cc32)cc1 | > 100 µM | > 100 µM | > 100 µM | > 100 µM | > 100 µM | > 100 µM | > 100 µM | > 100 µM | > 100 µM | > 100 µM
CC(=O)OC1C2CCC3CC2C2(SCCS2)C31 (centres undefined) | > 100 µM | > 100 µM | > 100 µM | > 100 µM | > 100 µM | > 100 µM | > 100 µM | > 100 µM | > 100 µM | > 100 µM
C/C(CC(O)(C(F)(F)F)C(F)(F)F)=N\O | > 10 µM | > 10 µM | > 10 µM | > 10 µM | > 10 µM | > 10 µM | > 10 µM | > 10 µM | > 10 µM | > 10 µM
COc1ccc(C2C3=C(COC3=O)Oc3cc4c(cc32)OCO4)cc1OC (centres undefined) | > 100 µM | > 100 µM | > 100 µM | 0.751 µM | > 100 µM | > 38 µM | 18.1 µM | > 26.8 µM | 13 µM | 4.85 µM
CC(C)(C)N=C1C(=O)C2(C)CCC1C2(C)C (centres undefined) | > 100 µM | > 100 µM | > 100 µM | > 100 µM | 34.8 µM | > 100 µM | > 100 µM | > 100 µM | > 100 µM | > 100 µM
CC(=O)N1CCOC12N=NC(C)(C)O2 (centres undefined) | > 100 µM | > 100 µM | > 100 µM | > 100 µM | > 100 µM | > 100 µM | > 100 µM | > 100 µM | > 100 µM | > 100 µM
CC1(C)Cc2ccccc2C(C)(Cl)C(=O)N1 (centres undefined) | > 10 µM | > 10 µM | > 10 µM | > 10 µM | > 10 µM | > 10 µM | > 10 µM | > 10 µM | > 10 µM | > 10 µM
Cc1cc(NS(=O)(=O)c2ccc(Nc3c4ccccc4nc4c(C(=O)NC(CO)(CO)CO)cccc34)cc2)no1 | > 100 µM | > 100 µM | > 100 µM | > 100 µM | 75.1 µM | > 100 µM | > 100 µM | > 100 µM | > 100 µM | 55.7 µM
CCOC(=O)/C=C(/C(=O)OCC)n1cc(C)c(=O)n(Cc2cn(CCCCOC(C)=O)nn2)c1=O | 41.9 µM | > 100 µM | > 100 µM | 28.4 µM | 30.5 µM | 22.7 µM | > 100 µM | > 100 µM | 20.5 µM | 36.6 µM
CC(C)(C)c1cc(C(C)(C)C)c(SC2OC(CO)C(O)C(O)C2O)c(O)c1O (centres undefined) | 24.5 µM | 72.4 µM | 49.9 µM | 21 µM | 4.99 µM | > 53.3 µM | > 81.4 µM | > 39.8 µM | 24.5 µM | 18.2 µM
COc1cc(/C=C2\N=C(c3ccccc3)N(c3cc4cc(Sc5ccccc5)ccc4[nH]3)C2=O)ccc1O | > 50 µM | > 50 µM | > 50 µM | 5.56 µM | > 50 µM | > 50 µM | > 50 µM | > 50 µM | > 50 µM | > 50 µM
CN1CCC(O)(OC(=O)C(c2ccccc2)C2(O)CCCC2)CC1 (centres undefined) | > 100 µM | > 100 µM | > 100 µM | > 100 µM | > 100 µM | > 100 µM | > 100 µM | > 100 µM | > 100 µM | > 100 µM
C[C@H](CCc1nc(C#N)c(N)o1)[C@H]1CC[C@H]2[C@@H]3CCC4C[C@@H](O)CC[C@]4(C)[C@H]3C[C@@H](O)[C@]12C (some centres undefined) | 31 µM | 30.3 µM | 27.4 µM | 30 µM | 25.3 µM | 27.8 µM | 31.2 µM | 39.6 µM | 27.7 µM | 31.2 µM
Oc1ccc(Nc2nc(Cl)c3[nH]cnc3n2)cc1 | > 100 µM | > 100 µM | > 100 µM | > 100 µM | > 100 µM | > 100 µM | > 100 µM | > 100 µM | > 100 µM | > 100 µM
O=C(NNC(=O)c1ccc(Cl)cc1NC(=O)C12CC3CC(CC(C3)C1)C2)c1ccc(Cl)cc1 | 39.4 µM | > 100 µM | > 100 µM | 35.6 µM | 55.8 µM | 69.8 µM | 27.6 µM | > 100 µM | 77 µM | 33.4 µM
O=C1OC2(CCCCC2)C(Oc2ccc(Cl)cc2)=C1F | > 100 µM | > 100 µM | > 100 µM | > 100 µM | > 100 µM | > 100 µM | > 100 µM | > 100 µM | > 100 µM | 57 µM
Clc1cc(Cl)nc(Nc2ccc3c(c2)CCC3)n1 | > 100 µM | > 100 µM | > 100 µM | > 100 µM | > 100 µM | 71.5 µM | 46.9 µM | 46 µM | 51.5 µM | 30.4 µM
CSCCC(NC(=O)C(Cc1c[nH]c2ccccc12)NC(=O)CCNC(=O)OC(C)(C)C)C(=O)NC(CC(=O)O)C(=O)NC(Cc1ccccc1)C(N)=O (centres undefined) | – | > 50 µM | > 50 µM | > 50 µM | > 50 µM | > 50 µM | > 50 µM | > 50 µM | > 50 µM | > 50 µM
Cc1c(C(=O)O)sc2nc[nH]c(=O)c12 | > 100 µM | > 100 µM | > 100 µM | > 100 µM | > 100 µM | > 100 µM | > 100 µM | > 100 µM | > 100 µM | > 100 µM
O=C(O)c1c(CC(Cc2ccccc2)C(=O)O)ccc2c1CCC2 (centres undefined) | > 100 µM | > 100 µM | > 100 µM | > 100 µM | > 100 µM | > 100 µM | > 100 µM | > 100 µM | > 100 µM | > 100 µM
CC1=NN(c2ccccc2)C(=O)/C1=C\c1c(C)[nH]n(-c2ccccc2)c1=O | > 100 µM | > 100 µM | > 100 µM | > 100 µM | > 100 µM | > 100 µM | > 100 µM | > 100 µM | > 100 µM | > 100 µM

— PubChem BioAssay (NCI)
